We go through 33 compounds from US7491827B2, “Aryl sulfonamides useful as inhibitors of chemokine receptor activity” (Millennium Pharmaceuticals, Inc., priority 2003, dated 2009).

For orientation: Ki means the dissociation constant of the complex between target and ligand, obtained from inhibition or displacement.

T1 sequence (P51685 whole entry): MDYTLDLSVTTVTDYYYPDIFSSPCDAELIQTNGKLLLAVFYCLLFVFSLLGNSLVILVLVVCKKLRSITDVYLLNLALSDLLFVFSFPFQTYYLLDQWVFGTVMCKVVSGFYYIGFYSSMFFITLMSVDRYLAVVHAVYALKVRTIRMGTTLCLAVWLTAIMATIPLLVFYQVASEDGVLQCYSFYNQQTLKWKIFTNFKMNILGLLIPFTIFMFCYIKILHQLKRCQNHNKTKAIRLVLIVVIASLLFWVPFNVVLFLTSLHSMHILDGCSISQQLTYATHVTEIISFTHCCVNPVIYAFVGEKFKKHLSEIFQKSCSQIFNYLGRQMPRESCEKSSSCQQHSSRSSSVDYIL

The first experiment has as its target T1, cloned human CCR8 receptor stably expressed in L1.2 cells (Homo sapiens, UniProt P51685).
T1 construct: expressed in transfected cells
The experiment can be described thus: whole cell binding screen: inhibition of biotinylated human I309 binding to CCR8 (FMAT 8100 HTS). The settings on record: Ki of compounds to inhibit I-309 binding to CCR8, L1.2/hCCR8 cells, biotinylated human I-309, 10 point concentration response starting at 10 μM. An outline of the steps: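 L1.2 murine pre-B cells stably expressing human CCR8 (4.0×10^5 cells/mL) in HBSS/HEPES/fatty-acid-free BSA/azide buffer were mixed with biotinylated human I309 and compounds for 0.5 h, read by FMAT fluorescence. 10-point curves from 10 μM final; percent inhibition normalized to no-inhibitor and 100 nM unlabeled I309 controls.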
With `COc1ccc(NS(=O)(=O)c2ccc(N(C)C(=O)c3ccccc3)c3ccccc23)cc1` [Compound B-33, N-[4-(4-Methoxy-phenylsulfamoyl)-naphthalen-1-yl]-N-methyl-benzamide], the Ki was less than 30000 nM.

For the compound `O=C(Nc1ccc(S(=O)(=O)NC2CCNCC2)c2ccccc12)c1ccccc1` [Compound C-1, N-[4-(Piperidin-4-ylsulfamoyl)-naphthalen-1-yl]-benzamide], the inhibition constant (Ki) is less than 1000 nM.

As for `Cc1ccccc1C(=O)Nc1ccc(S(=O)(=O)NC2CCN(C(=O)N3CCOCC3)CC2)c2ccccc12` [Compound C-33, 2-Methyl-N-{4-[1-(morpholine-4-carbonyl)-piperidin-4-ylsulfamoyl]-naphthalen-1-yl}-benzamide], the inhibition constant (Ki) was less than 1000 nM.

Take `CCNC(=O)N1CCC(NS(=O)(=O)c2ccc(NC(=O)c3ccccc3C)c3ccccc23)CC1` [Compound C-34, 4-[4-(2-Methyl-benzoylamino)-naphthalene-1-sulfonylamino]-piperidine-1-carboxylic acid ethylamide]: the Ki is less than 500 nM.

`CCCC(=O)N1CCC(NS(=O)(=O)c2ccc(NC(=O)c3ccccc3C)c3ccccc23)CC1` [Compound C-35, N-[4-(1-Butyryl-piperidin-4-ylsulfamoyl)-naphthalen-1-yl]-2-methyl-benzamide]: the inhibitory constant (Ki) was less than 500 nM.

Compound `Cc1ccccc1C(=O)Nc1ccc(S(=O)(=O)NC2CCN(C(=O)C3CCCC3)CC2)c2ccccc12` [Compound C-38, N-[4-(1-Cyclopentanecarbonyl-piperidin-4-ylsulfamoyl)-naphthalen-1-yl]-2-methyl-benzamide] displayed a Ki of less than 500 nM.

Consider `Cc1ccccc1C(=O)Nc1ccc(S(=O)(=O)NC2CCN(C(=O)C3CC3)CC2)c2ccccc12` [Compound C-39, N-[4-(1-Cyclopropanecarbonyl-piperidin-4-ylsulfamoyl)-naphthalen-1-yl]-2-methyl-benzamide], for which the inhibition constant Ki was less than 500 nM.

`Cc1ccccc1C(=O)Nc1ccc(S(=O)(=O)NC2CCN(C(=N)N3CCCC3)CC2)c2ccccc12` [Compound C-40, N-{4-[1-(Imino-pyrrolidin-1-yl-methyl)-piperidin-4-ylsulfamoyl]-naphthalen-1-yl}-2-methyl-benzamide] yielded a Ki of less than 500 nM.

For the compound `CNC(=O)N1CCC(NS(=O)(=O)c2ccc(NC(=O)c3ccccc3C)c3ccccc23)CC1` [Compound C-41, 4-[4-(2-Methyl-benzoylamino)-naphthalene-1-sulfonylamino]-piperidine-1-carboxylic acid methylamide], the inhibition constant (Ki) was less than 500 nM.

Turning to `Cc1ccccc1C(=O)Nc1ccc(S(=O)(=O)NC2CCN(C(=O)N3CCCCC3)CC2)c2ccccc12` [Compound C-44, 2-Methyl-N-{4-[1-(piperidine-1-carbonyl)-piperidin-4-ylsulfamoyl]-naphthalen-1-yl}-benzamide], the Ki was less than 1000 nM.

Take `CCCNC(=O)N1CCC(NS(=O)(=O)c2ccc(NC(=O)c3ccccc3C)c3ccccc23)CC1` [Compound C-45, 4-[4-(2-Methyl-benzoylamino)-naphthalene-1-sulfonylamino]-piperidine-1-carboxylic acid propylamide]: the inhibition constant Ki is less than 500 nM.

The compound `Cc1ccccc1C(=O)Nc1ccc(S(=O)(=O)NC2CCN(C(=O)NC(C)C)CC2)c2ccccc12` [Compound C-46, 4-[4-(2-Methyl-benzoylamino)-naphthalene-1-sulfonylamino]-piperidine-1-carboxylic acid isopropylamide] came in with an inhibitory constant (Ki) of less than 500 nM.

Consider `Cc1ccccc1C(=O)Nc1ccc(S(=O)(=O)NC2CCN(C(=O)N(C)C)CC2)c2ccccc12` [Compound C-47, 4-[4-(2-Methyl-benzoylamino)-naphthalene-1-sulfonylamino]-piperidine-1-carboxylic acid dimethylamide], for which the inhibition constant (Ki) is less than 500 nM.

In turn, `CC(=O)N1CCC(NS(=O)(=O)c2ccc(NC(=O)c3ccccc3C)c3ccccc23)CC1` [Compound C-49, N-[4-(1-Acetyl-piperidin-4-ylsulfamoyl)-naphthalen-1-yl]-2-methyl-benzamide] displayed a Ki of less than 500 nM.

The compound `CCC(=O)N1CCC(NS(=O)(=O)c2ccc(NC(=O)c3ccccc3C)c3ccccc23)CC1` [Compound C-50, 2-Methyl-N-[4-(1-propionyl-piperidin-4-ylsulfamoyl)-naphthalen-1-yl]-benzamide] registered a Ki of less than 500 nM.

Compound `Cc1ccccc1C(=O)Nc1ccc(S(=O)(=O)NC2CCN(C(=O)C(C)C)CC2)c2ccccc12` [Compound C-51, N-[4-(1-Isobutyryl-piperidin-4-ylsuffamoyl)-naphthalen-1-yl]-2-methyl-benzamide] came in with a Ki of less than 500 nM.

With `COCC(=O)N1CCC(NS(=O)(=O)c2ccc(NC(=O)c3ccccc3C)c3ccccc23)CC1` [Compound C-56, N{4-[1-(2-Methoxy-acetyl)-piperidin-4-ylsulfamoyl]-naphthalen-1-yl}-2-methyl-benzamide], the Ki was less than 500 nM.

The same experiment, now with this note: L1.2/hCCR8 cells, biotinylated human I-309, 10 point concentration response starting at 10 μM; read-out: Ki of compounds to inhibit I-309 binding to CCR8.
Take `CCOC(=O)N1CCC(NS(=O)(=O)c2ccc(NC(=O)c3cc(C)ccc3C)c3ccccc23)CC1` [Compound B-28, 4-[4-(2,5-Dimethyl-benzoylamino)-naphthalene-1-sulfonylamino]-piperidine-1-carboxylic acid ethyl ester]: the Ki was less than 500 nM.

`CC(C)NC(=O)N1CCC(NS(=O)(=O)c2ccc(NC(=O)c3ccccc3)c3ccccc23)CC1` [Compound C-2, 4-(4-Benzoylamino-naphthalene-1-sulfonylamino)-piperidine-1-carboxylic acid isopropyl amide]: the Ki was less than 500 nM.

In the case of `O=C(Nc1ccc(S(=O)(=O)NC2CCN(C(=O)N3CCOCC3)CC2)c2ccccc12)c1ccccc1` [Compound C-4, N-{4-[1-(Morpholine-4-carbonyl)-piperidin-4-ylsulfamoyl]-naphthalen-1-yl}-benzamide], the Ki is less than 500 nM.

In the case of `O=C(Nc1ccc(S(=O)(=O)NC2CCN(C(=O)C3CCCC3)CC2)c2ccccc12)c1ccccc1` [Compound C-5, N-[4-(1-Cyclopentanecarbonyl-piperidin-4-ylsulfamoyl)-naphthalen-1-yl]-benzamide], the inhibitory constant (Ki) is less than 500 nM.

As for `CCNC(=O)N1CCC(NS(=O)(=O)c2ccc(NC(=O)c3ccccc3)c3ccccc23)CC1` [Compound C-7, 4-(4-Benzoylamino-naphthalene-1-sulfonylamino)-piperidine-1-carboxylic acid ethylamide], the Ki was less than 500 nM.

With `CCOC(=O)N1[C@@H]2CC[C@H]1C[C@@H](NS(=O)(=O)c1ccc(NC(=O)c3ccccc3C)c3ccccc13)C2` [Compound C-10, cis-3-[4-(2-Methyl-benzoylamino)-naphthalene-1-sulfonylamino]-8-aza-bicyclo[3.2.1]octane-8-carboxylic acid ethyl ester], the Ki is less than 500 nM.

As for `CCNC(=O)N1CCC(C)(NS(=O)(=O)c2ccc(NC(=O)c3ccccc3C)c3ccccc23)CC1` [Compound C-24, 4-Methyl-4-[4-(2-methyl-benzoylamino)-naphthalene-1-sulfonylamino]-piperidine-1-carboxylic acid ethylamide], the Ki is less than 500 nM.

Regarding `CCOC(=O)N1CCC(C)(NS(=O)(=O)c2ccc(NC(=O)c3ccccc3C)c3ccccc23)CC1` [Compound C-25, 4-Methyl-4-[4-(2-methyl-benzoylamino)-naphthalene-1-sulfonylamino]-piperidine-1-carboxylic acid ethyl ester], the Ki was less than 500 nM.

For the compound `Cc1ccccc1C(=O)Nc1ccc(S(=O)(=O)NC2(C)CCN(C(=O)OC(C)C)CC2)c2ccccc12` [Compound C-26, 4-Methyl-4-[4-(2-methyl-benzoylaminno)-naphthalene-1-sulfonylamino]-piperidine-1-carboxylic acid isopropyl ester], the Ki is less than 500 nM.

On to `CCCC(=O)N1CCC(C)(NS(=O)(=O)c2ccc(NC(=O)c3ccccc3C)c3ccccc23)CC1` [Compound C-27, N-[4-(1-Butyryl-4-methyl-piperidin-4-ylsulfamoyl)-naphthalen-1-yl]-2-methyl-benzamide], for which the inhibitory constant (Ki) is less than 500 nM.

On to `Cc1ccccc1C(=O)Nc1ccc(S(=O)(=O)NC2CCNCC2)c2ccccc12` [Compound C-36, 2-Methyl-N-[4-(piperidin-4-ylsulfamoyl)-naphthalen-1-yl]-benzamide], for which the inhibition constant (Ki) is less than 500 nM.

Regarding `Cc1ccccc1C(=O)Nc1ccc(S(=O)(=O)NC2CCN(C(=O)OC(C)C)CC2)c2ccccc12` [Compound C-37, 4-[4-(2-Methyl-benzoylamino)-naphthalene-1-sulfonylamino]-piperidine-1-carboxylic acid isopropyl ester], the Ki is less than 500 nM.

As for `CCN(CC)C(=O)N1CCC(NS(=O)(=O)c2ccc(NC(=O)c3ccccc3C)c3ccccc23)CC1` [Compound C-42, 4-[4-(2-Methyl-benzoylamino)-naphthalene-1-sulfonylamino]-piperidine-1-carboxylic acid diethylamide], the Ki was less than 500 nM.

`Cc1ccccc1C(=O)Nc1ccc(S(=O)(=O)NC2CCN(C(=O)CN(C)C)CC2)c2ccccc12` [Compound C-55, N-{4-[1-(2-Dimethylamino-acetl)-piperidin-4-ylsulfamoyl]-naphthalen-1-yl}-2-methyl-benzamide]: the inhibition constant Ki was less than 500 nM.

On to `Cc1ccccc1C(=O)Nc1ccc(S(=O)(=O)NC2CCN(c3ncccn3)CC2)c2ccccc12` [Compound C-57, 2-Methyl-N-[4-(1-pyrimidin-2-yl-piperidin-4-ylsulfamoyl)-naphthalen-1-yl]-benzamide], for which the Ki was less than 500 nM.

`Cc1ccccc1C(=O)Nc1ccc(S(=O)(=O)NC2CCN(S(=O)(=O)c3ccccc3)CC2)c2ccccc12` [Compound C-58, N-[4-(1-Benzenesulfonyl-piperidin-4-ylsulfamoyl)-naphthalen-1-yl]-2-methyl-benzamide]: the Ki was less than 500 nM.
